Assay results as given in US20230331675A1, “AROMATIC ETHYLENE COMPOUND AND PREPARATION METHOD THEREFOR, AND INTERMEDIATE, PHARMACEUTICAL COMPOSITION, AND APPLICATION THEREOF” (GUANGZHOU MAXINOVEL PHARMACEUTICALS CO., LTD., priority 2020, published 2023).

What was measured:
[1] = Pharmacokinetic experiment in mice; assay type: in vivo; conditions: CD1 male mice, intravenous 2 mg/kg; for F: oral 10 mg/kg by gavage; for AUC(0-inf) / Cmax: mouse, plasma, oral 10 mg/kg by gavage (route of value not stated)
Source text: Effect embodiment 2: Pharmacokinetic experiment in mice
Reagents: Acetonitrile, formic acid, methanol (HPLC grade) were purchased from Sigma-Aldrich (USA.), and pure water was purchased from Hangzhou Wahaha Group Co., Ltd. (Hangzhou, China). Other chemical reagents were all analytically pure reagents.
Experimental instruments: liquid chromatograph mass spectrometer (UPLC-MS/MS, composed of AB SCIEX TRIPLE QUAD 6500 triple quadrupole mass spectrometer, Shimadzu high performance liquid phase system. The Analyst 1.6.2 data acquisition and processing system was adopted).
Experimental animals: 6 CD1 male mice, 29-30 g before administration, were purchased from Shanghai Jihui Experimental Animal Breeding Co., Ltd., and the animal certificate number is SCXK(SH) 2017-0012 20170012001403. Before the experiment, the animals should be kept for at least 3 days to adapt to the environment. Throughout the experiment, the animals had free access to food and water.
1) Preparation of a mother liquor: A certain amount of the test drug was weighed in a clean sample bottle, then dimethyl sulfoxide was added, vortexed thoroughly for 1 min, and sonicated for 5 min to give a 4 mg/mL solution.
Drug preparation for intravenous administration: A certain amount of the above solution was taken and placed in a clean sample bottle, then polyethylene glycol-15 hydroxystearate was added, vortexed thoroughly for 1 min, then normal saline was added, and the mixture was continued vortexing for 1 min to give […] solution A.
Drug preparation for oral administration: A certain amount of the test drug was weighed and placed in a clean sample bottle, then a pre-prepared vehicle “10% (w/v) polyoxyethylene 40 hydrogenated castor+20% (w/v) sulfobutyl ether β-cyclodextrin+70% water” was added, vortexed thoroughly for 1 min, magnetically stirred for 20-25 min, and sonicated for 10 min to give 1 mg/mL solution B.
2) Intravenous administration: 3 mice were injected with 2 mg/kg (5 mL/kg) solution A through the tail vein.
Oral administration: 3 mice were given 10 mg/kg (10 mL/kg) solution B by gavage.
3) Collection and storage of plasma samples: Blood samples were collected from the orbital venous plexus of mice according to predetermined time points (5 minutes, 15 minutes, 30 minutes, 1 hour, 2 hours, 4 hours, 8 hours and 24 hours). 25 μL of blood was placed in EDTA-K2 anticoagulant tubes (placed on wet ice), and 20 μL of blood was immediately diluted with 60 μL of water and vortexed until evenly mixed. Plasma was stored in a −70° C. refrigerator for long-term storage until sample analysis.
4) Analysis of plasma samples: 200 μL of acetonitrile (containing 100 ng/mL internal standard) was added to 25 μL of plasma sample, vortexed for 10 minutes, and centrifuged at 5800 rpm for 10 minutes. 70 μL of supernatant was transferred to a 96-well injection plate. 1 μL of plasma sample was analyzed by LC-MS/MS.
5) The pharmacokinetic parameters were calculated according to the test results.

PD-1/PD-L1 = PD-1/PD-L1 (Homo sapiens (Human), UniProt Q9NZQ7); test: Homogeneous time-resolved fluorescence (HTRF) binding assay; conditions: CisBio kit, read-out: IC50 of compounds binding to PD-1/PD-L1
Chain of PD-1/PD-L1 (Q9NZQ7 19-238): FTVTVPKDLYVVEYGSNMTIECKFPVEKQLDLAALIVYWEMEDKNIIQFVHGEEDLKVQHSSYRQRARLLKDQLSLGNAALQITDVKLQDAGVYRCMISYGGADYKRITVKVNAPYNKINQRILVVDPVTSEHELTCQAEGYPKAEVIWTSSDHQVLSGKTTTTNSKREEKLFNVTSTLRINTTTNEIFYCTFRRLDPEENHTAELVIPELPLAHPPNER
How it was run: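 Compound at 10 concentrations (3-fold steps) preincubated with PD-L1 and PD-1 at room temperature for 30 minutes. Anti-tag1-Eu and anti-tag2-XL665 then added, with 1 to 24 hours further incubation at room temperature before HTRF readout of binding.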

| SMILES | F [1] | AUC(0-inf) [1] | Cmax [1] | IC50 (PD-1/PD-L1) |
| --- | --- | --- | --- | --- |
| COc1cc(/C=C/c2cccc(-c3ccccc3)c2C)c(C(F)(F)F)cc1CN1CCCC[C@H]1C(=O)O [drawing 201] | 72.4% | 40600 ng·h/mL | 1870 ng/mL | – |
| COc1cc(/C=C/c2cccc(-c3ccccc3)c2C#N)c(C(F)(F)F)cc1CN1CCCC[C@H]1C(=O)O [drawing 203] | 69.7% | 7620 ng·h/mL | 1400 ng/mL | – |
| Cc1c(/C=C/c2cc(OCCF)c(CN3CCCC[C@H]3C(=O)O)cc2C(F)(F)F)cccc1-c1ccccc1 [Compound 87, (S,E)-1-(2-(2-Fluoroethoxy)-4-(2-(2-methyl-[1,1′-biphenyl]-3-yl)vinyl)-5-(trifluoromethyl)benzyl)piperidine-2-carboxylic acid] | – | – | – | 2.8 nM |
| Cc1c(/C=C/c2cc(OCc3cncc(I)c3)c(CN3CCCC[C@H]3C(=O)O)cc2C(F)(F)F)cccc1-c1ccccc1 [Compound 82, (S,E)-1-(2-((5-Iodopyridin-3-yl)methoxy)-4-(2-(2-methyl-[1,1′-biphenyl]-3-yl)vinyl)-5-(trifluoromethyl)benzyl)piperidine-2-carboxylic acid] | – | – | – | 1.85 nM |

More lines, now with the values ahead:

| F [1] | AUC(0-inf) [1] | Cmax [1] | IC50 (PD-1/PD-L1) | SMILES |
| --- | --- | --- | --- | --- |
| 74.1% | 8580 ng·h/mL | 1260 ng/mL | – | Cc1cc(/C=C/c2nccc(-c3ccccc3)c2C#N)c(Cl)cc1CN1CCCC[C@H]1C(=O)O [reference compound] |
| 80.6% | 16800 ng·h/mL | 2130 ng/mL | – | Cc1cc(/C=C/c2cccc(-c3ccccc3)c2C#N)c(Cl)cc1CN1CCCC[C@H]1C(=O)O [drawing 205] |
| 16.4% | 1000 ng·h/mL | 254 ng/mL | – | COc1cc(/C=C/c2nccc(-c3ccccc3)c2C#N)c(C(F)(F)F)cc1CN1CCCC[C@H]1C(=O)O [reference compound] |
| 23.6% | 2300 ng·h/mL | 673 ng/mL | – | COc1cc(/C=C/c2nccc(-c3ccccc3)c2C)c(C(F)(F)F)cc1CN1CCCC[C@H]1C(=O)O [reference compound] |
